Experiment [1] concerns T1, NMDA receptor (NMDAR).
T1 construct: gene Grin1; native receptor in dissociated cultures of rat hippocampal neurons
In words: whole-cell patch clamp of NMDA-evoked currents, concentration-response at -70 mV; also NMDAR EPSCs. In kind it is cell-based, Rattus norvegicus. Background: In patch-clamp work, channel activity is measured electrically.

Experiment [2] relates to T1, NMDA receptor (NMDAR). In words: whole-cell patch clamp of NMDA-evoked currents, concentration-response at -70 mV. It is filed as cell-based, Rattus norvegicus.

For orientation: IC50 means the concentration at which inhibition is half-maximal. A low value points to greater potency. As for `C#CCCCNC1(c2ccccc2Cl)CCCCC1=O` (racemic) [compound 1, A-NK], the IC50 in the experiment with NMDA receptor (NMDAR) [1] was 1.8 µM.
Take `CNC1(c2ccccc2Cl)CCCCC1=O` (racemic) [ketamine]: the IC50 with NMDA receptor (NMDAR) [2] worked out at 0.4 µM.
With `NC1(c2ccccc2Cl)CCCCC1=O` (racemic) [norketamine], in the experiment with NMDA receptor (NMDAR) [1], the IC50 is 2 µM.

These data come from paper PMC5159840, “A Clickable Analogue of Ketamine Retains NMDA Receptor Activity, Psychoactivity, and Accumulates in Neurons” (Scientific Reports, 2016).
